# Tested on: Amaranthus retroflexus (AMARE)
# Experiment: Herbicidal pre-emergence action (A), 1280 g/ha
# Type: in vivo
# Conditions: visual grading after ca. 3 weeks vs untreated controls
# Description: (§1) ABUTH: Abutilon theophrasti AGSTE: Agrostis tenuis ALOMY: Alopecurus myosuroides AMARE Amaranthus retroflexus DIGSA: Digitaria sanguinalis ECHCG: Echinochloa crus-galli KCHSC: Kochia scoparia LOLRI: Lolium rigidum MATIN: Matricaria inodora POAAN: Poa annua POLCO: Polygonum convolvulus SETVI: Setaria viridis STEME: Stellaria media VERPE: Veronica persica VIOTR: Viola tricolor
# (§2) Seeds of mono- and dicotyledonous weed plants were sown in plastic pots (double sowings with one species of mono- and one species of dicotyledonous weed plants per pot), in sandy loam, and covered with soil. The compounds according to the invention, formulated in the form of wettable powders (WP) or as emulsifiable concentrates (EC), were applied to the surface of the covering soil as aqueous suspension or emulsion, with the addition of 0.5% of an additive, at an application rate of 600 l of water per hectare (converted). Following treatment, the pots were placed in a greenhouse and kept under optimum growth conditions for the test plants. The visual grading of the damage to the test plants was carried out after ca. 3 weeks in comparison to untreated controls (herbicidal effect in percent (%): 100% effect=plants have died off, 0% effect=as control plants).
# (§3) Tables A1 to A12, below, show the effects of selected compounds of the general formula (I) according to table 1 on various harmful plants and an application rate corresponding to 1280 g/ha obtained by the experimental procedure mentioned above.
row,Structure (SMILES),herbicidal effect AMARE [%]
1,Cc1ncsc1-c1nc2ncsc2cc1Br [Example I-204],90

# Tested on: Digitaria sanguinalis (DIGSA)
# Experiment: Herbicidal pre-emergence action (A), 1280 g/ha
# Type: in vivo
# Conditions: visual grading after ca. 3 weeks vs untreated controls, 100% = plants have died off, 0% = as control plants
# Description: as §1, §2, §3
row,Structure (SMILES),"DIGSA, herbicidal effect in percent (%)"
1,Cc1nc2nc(-c3ccccc3Cl)c(C)cc2s1 [Example I-103],90
2,CCc1cc2sc(S)nc2nc1C1=CCCCC1 [Example I-176],90

# Tested on: Echinochloa crus-galli (ECHCG)
# Experiment: Herbicidal pre-emergence action (A), 1280 g/ha
# Type: in vivo
# Conditions: visual grading after ca. 3 weeks vs untreated controls, 100% = plants have died off, 0% = as control plants
# Description: as §1, §2, §3
row,Structure (SMILES),"ECHCG, herbicidal effect in percent (%)"
1,Cc1nc2nc(-c3ccccc3Cl)c(C)cc2s1 [Example I-103],90
2,Cc1nc2nc(-c3ccccc3)c(C)cc2s1 [Example I-115],100
3,Cc1scc(-c2ccc3scnc3n2)c1C [Example I-201],100
4,Cc1ncsc1-c1nc2ncsc2cc1Br [Example I-204],90

# Tested on: Kochia scoparia (KCHSC; Bassia scoparia)
# Experiment: Herbicidal pre-emergence action (A), 1280 g/ha
# Type: in vivo
# Conditions: visual grading after ca. 3 weeks vs untreated controls
# Description: as §1, §2, §3
row,Structure (SMILES),herbicidal effect KCHSC [%]
1,Cc1cc2sc([S+](C)[O-])nc2nc1-c1ccccc1Cl (stereo not shown) [Example I-024],100
2,COc1ccccc1-c1nc2nc(S)sc2cc1C [Example I-164],90
3,CCc1cc2sc(S)nc2nc1C1=CCCCC1 [Example I-176],90
4,Cc1scc(-c2ccc3scnc3n2)c1C [Example I-201],90

# Tested on: Lolium rigidum (LOLRI)
# Experiment: Herbicidal pre-emergence action (A), 1280 g/ha
# Type: in vivo
# Conditions: visual grading after ca. 3 weeks vs untreated controls, 100% = plants have died off, 0% = as control plants
# Description: as §1, §2, §3
row,Structure (SMILES),"LOLRI, herbicidal effect in percent (%)"
1,Cc1sc(Br)cc1-c1nc2ncsc2cc1Br [Example I-138],90

# Tested on: Matricaria inodora (MATIN)
# Experiment: Herbicidal pre-emergence action (A), 1280 g/ha
# Type: in vivo
# Conditions: visual grading after ca. 3 weeks vs untreated controls
# Description: as §1, §2, §3
row,Structure (SMILES),herbicidal effect MATIN [%]
1,Cc1nc2nc(-c3ccccc3)c(C)cc2s1 [Example I-115],90
2,Cc1nc2nc(-c3cc(Br)sc3C)c(Br)cc2s1 [Example I-142],100

# Tested on: Poa annua (POAAN)
# Experiment: Herbicidal pre-emergence action (A), 1280 g/ha
# Type: in vivo
# Conditions: visual grading after ca. 3 weeks vs untreated controls, 100% = plants have died off, 0% = as control plants
# Description: as §1, §2, §3
row,Structure (SMILES),"POAAN, herbicidal effect in percent (%)"
1,Cc1nc2nc(-c3ccccc3Cl)c(C)cc2s1 [Example I-103],90
2,Cc1nc2nc(-c3ccccc3)c(C)cc2s1 [Example I-115],100
3,Cc1sc(Br)cc1-c1nc2ncsc2cc1Br [Example I-138],100
4,Cc1nc2nc(-c3cc(Br)sc3C)c(Br)cc2s1 [Example I-142],100
5,COc1ccccc1-c1nc2nc(S)sc2cc1C [Example I-164],100
6,Cc1ncsc1-c1nc2ncsc2cc1Br [Example I-204],90

# Tested on: Setaria viridis (SETVI)
# Experiment: Herbicidal pre-emergence action (A), 1280 g/ha
# Type: in vivo
# Conditions: visual grading after ca. 3 weeks vs untreated controls
# Description: as §1, §2, §3
row,Structure (SMILES),herbicidal effect SETVI [%]
1,Cc1nc2nc(-c3ccccc3Cl)c(C)cc2s1 [Example I-103],90
2,Cc1nc2nc(-c3ccccc3)c(C)cc2s1 [Example I-115],100
3,Cc1sc(Br)cc1-c1nc2ncsc2cc1Br [Example I-138],90
4,COc1ccccc1-c1nc2nc(S)sc2cc1C [Example I-164],100
5,CCc1cc2sc(S)nc2nc1C1=CCCCC1 [Example I-176],100
6,Cc1scc(-c2ccc3scnc3n2)c1C [Example I-201],90
7,Cc1ncsc1-c1nc2ncsc2cc1Br [Example I-204],100

# Tested on: Stellaria media (STEME)
# Experiment: Herbicidal pre-emergence action (A), 1280 g/ha
# Type: in vivo
# Conditions: visual grading after ca. 3 weeks vs untreated controls
# Description: as §1, §2, §3
row,Structure (SMILES),herbicidal effect STEME [%]
1,Cc1cc2sc([S+](C)[O-])nc2nc1-c1ccccc1Cl (stereo not shown) [Example I-024],100
2,Cc1nc2nc(-c3ccccc3Cl)c(C)cc2s1 [Example I-103],100
3,Cc1nc2nc(-c3ccccc3)c(C)cc2s1 [Example I-115],100
4,Cc1sc(Br)cc1-c1nc2ncsc2cc1Br [Example I-138],90
5,CCc1cc2sc(S)nc2nc1C1=CCCCC1 [Example I-176],90
6,Cc1scc(-c2ccc3scnc3n2)c1C [Example I-201],100
7,Cc1ncsc1-c1nc2ncsc2cc1Br [Example I-204],90

# Tested on: Veronica persica (VERPE)
# Experiment: Herbicidal pre-emergence action (A), 1280 g/ha
# Type: in vivo
# Conditions: visual grading after ca. 3 weeks vs untreated controls
# Description: as §1, §2, §3
row,Structure (SMILES),herbicidal effect VERPE [%]
1,Cc1cc2sc([S+](C)[O-])nc2nc1-c1ccccc1Cl (stereo not shown) [Example I-024],90

# Tested on: Kochia scoparia (KCHSC; Bassia scoparia)
# Experiment: Herbicidal post-emergence action (B), 1280 g/ha
# Type: in vivo
# Conditions: not given
# Description: as §1
# (§4) Seeds of mono- and dicotyledonous weed plants were placed in plastic pots in sandy loam soil (doubly sown with in each case one species of mono- or dicotyledonous weed plants per pot), covered with soil and cultivated in a greenhouse under controlled growth conditions. 2 to 3 weeks after sowing, the test plants were treated at the one-leaf stage. The compounds of the invention, formulated in the form of wettable powders (WP) or as emulsion concentrates (EC), were applied onto the green parts of the plants as aqueous suspension or emulsion with addition of 0.5% additive at a water application rate of 600 liters per hectare (converted). After the test plants had been kept in the greenhouse under optimum growth conditions for about 3 weeks, the activity of the preparations was rated visually in comparison to untreated controls. For example, 100% activity=the plants have died, 0% activity=like control plants.
# (§5) Tables B1 to B12, below, show the effects of selected compounds of the general formula (I) according to table 1 on various harmful plants and an application rate corresponding to 1280 g/ha obtained by the experimental procedure mentioned above.
row,Structure (SMILES),herbicidal effect KCHSC [%]
1,Cc1cc2sc([S+](C)[O-])nc2nc1-c1ccccc1Cl (stereo not shown) [Example I-024],90
2,CCc1cc2sc(S)nc2nc1C1=CCCCC1 [Example I-176],90

# Tested on: Poa annua (POAAN)
# Experiment: Herbicidal post-emergence action (B), 1280 g/ha
# Type: in vivo
# Conditions: rated visually after about 3 weeks vs untreated controls
# Description: as §1, §4, §5
row,Structure (SMILES),herbicidal activity POAAN [%]
1,Cc1sc(Br)cc1-c1nc2ncsc2cc1Br [Example I-138],90

# Tested on: Stellaria media (STEME)
# Experiment: Herbicidal post-emergence action (B), 1280 g/ha
# Type: in vivo
# Conditions: not given
# Description: as §1, §4, §5
row,Structure (SMILES),herbicidal effect STEME [%]
1,Cc1scc(-c2ccc3scnc3n2)c1C [Example I-201],90

# Tested on: Veronica persica (VERPE)
# Experiment: Herbicidal post-emergence action (B), 1280 g/ha
# Type: in vivo
# Conditions: not given
# Description: as §1, §4, §5
row,Structure (SMILES),herbicidal effect VERPE [%]
1,Cc1sc(Br)cc1-c1nc2ncsc2cc1Br [Example I-138],90
2,COc1ccccc1-c1nc2nc(S)sc2cc1C [Example I-164],90
3,CCc1cc2sc(S)nc2nc1C1=CCCCC1 [Example I-176],90
4,Cc1ncsc1-c1nc2ncsc2cc1Br [Example I-204],90
